Measurements reported in PubChem BioAssay (NCI).
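Five compound concentrations were applied to cells in 96-well plates for 48 hours; endpoints were derived by simple linear interpolation of the resulting dose-response curve. GI50 is the concentration that inhibits growth by half. At the TGI there is no net growth.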

Experiments:
Assay in all cases: growth of human tumour cells (NCI), 48 h
K-562 leukemia = system: K-562 leukemia
OVCAR-5 ovarian = system: OVCAR-5 ovarian
UACC-62 melanoma = system: UACC-62 melanoma
SR leukemia = system: SR leukemia
ACHN renal = system: ACHN renal
M14 melanoma = system: M14 melanoma
LOX IMVI melanoma = system: LOX IMVI melanoma
SK-OV-3 ovarian = system: SK-OV-3 ovarian
MDA-MB-231 breast = system: MDA-MB-231 breast
HS 578T breast = system: HS 578T breast

SMILES	TGI (K-562 leukemia) [µM]	TGI (OVCAR-5 ovarian) [µM]	TGI (UACC-62 melanoma) [µM]	TGI (SR leukemia) [µM]	TGI (ACHN renal) [µM]	TGI (M14 melanoma) [µM]	TGI (LOX IMVI melanoma) [µM]	TGI (SK-OV-3 ovarian) [µM]	GI50 (MDA-MB-231 breast) [µM]	TGI (MDA-MB-231 breast) [µM]	GI50 (K-562 leukemia) [µM]	GI50 (OVCAR-5 ovarian) [µM]	GI50 (UACC-62 melanoma) [µM]	GI50 (SR leukemia) [µM]	GI50 (ACHN renal) [µM]	GI50 (LOX IMVI melanoma) [µM]	GI50 (M14 melanoma) [µM]	GI50 (HS 578T breast) [µM]	TGI (HS 578T breast) [µM]	GI50 (SK-OV-3 ovarian) [µM]
O=C(c1ccccc1)c1c(CC(O)c2ccccc2)n(C(=O)c2ccccc2)c2ccccc12 (configuration not stated)	> 100	> 100	> 100	72.8	> 100	> 100														
NNC(=O)N/N=C1\C(=O)N(c2nccs2)C(=O)C(=O)C1c1nc2ccccc2s1 (configuration not stated)		> 100	> 100		> 100	> 100	> 100	> 100												
CCCCCCCCCOC(=S)NCCCCC	84.1		89	50.6	69.9	87.9	29.4	87.7												
COC(=O)C(C(=O)C(=O)Nc1ccc(OC)cc1[N+](=O)[O-])c1nc2cc(C)c(C)cc2[nH]c1=O (configuration not stated)	> 100		> 100	> 100	> 100	> 100	> 100	> 100												
CN(C)CCNC(=O)c1cccc2ncc(-c3ccccc3)nc12	61.9	30.5	27.2	6.95	> 94.3	27.2	29.5	82.6												
CO[C@@H]1[C@H]2[C@@H](C)c3ccoc3C[C@@H]2[C@@]2(C)CC[C@H](OC(=O)c3ccccc3)[C@](C)(C(=O)O)[C@]2(O)[C@@H]1OC(=O)c1ccccc1	> 50	31.2	13.6	> 50	18.9	24.4	13.6		6.07	16	15.4	12	7.12	10.9	7.98	6.73	8.53	24.8	> 50	
Cc1c(C2Cc3ccccc3N2)c2ccccc2n1C (configuration not stated)	> 100	> 100	> 100	> 100	> 100	> 100	> 100	> 100												
CCOC(=O)c1c2cccccc2n2c(=O)cc(C)nc12	> 100	> 100	> 100	> 100	> 100	> 100	> 100													
CCCCCCCCCCCCCC(=O)OCC1OC(n2cc(F)c(=O)[nH]c2=O)C(N)C(OC(=O)CCCCCCCCCCCCC)C1O (configuration not stated)	> 100		> 100	> 100	> 100	> 100	> 100	> 100												
COc1cc(CC(C(=O)O)C(=O)O)c(OC)cc1CC(C(=O)O)C(=O)O	> 100	> 100	> 100	> 100		> 100	> 100	> 100												
CCOC(=O)C1SC(=Nc2ccc(Cl)cc2C)N=C1C (configuration not stated)	51.3	45.9	27.9		57.2	35.3	28.2													
O=C(O)CC1CC=C[C@H]2c3cc4c(cc3C(=O)NC12)OCO4 (some centres not stated)	> 75		> 75	> 75	> 75	> 75	> 75	> 75												
COC(=O)C(=O)C(C(=O)C(=O)Nc1ccc(C)cc1)c1nc2ccc(C(=O)c3ccccc3)cc2[nH]c1=O (configuration not stated)	> 100	> 100	> 100		> 100		> 100	> 100		> 100									> 100	
CN(O)C(=S)c1ccccc1	> 100	> 100	6.21		37.7	> 38.7	7.76	> 95.5		> 24.9									> 100	
N#Cc1c(N)nc(N2CCSCC2)c(C#N)c1-c1ccc(O)cc1	58.3	50	26.2	38.1	59		30.3	98.9	12.4	27.5	19.8	16.1	13	11.2	18.9	15.2		25.1	> 100	24.5
CC(=O)C1CCC2C3CC=C4CC(SC(=N)N)CCC4(C)C3CCC12C (configuration not stated)		8.87				2.81		18				2.43					1.46	2.56	11.3	4.19
COCOCC[C@@H]1CC=CC(NC(=O)OCc2ccccc2)C1/C=C/C(=O)CCC1OCCO1 (some centres not stated)	> 100	> 100	> 75.4	23.6	> 100	88.4	34	> 100												
C=C1C(=O)OC2C1C(OC(=O)/C(C)=C\C)CC1(CO1)C1C(O)C=C(C)C21O (configuration not stated)	> 100	34.3	5.81	24.2	13.9	7.58	30.6	30.5												
C[C@@H]1CC[C@@H]2[C@@H](C)C[C@H]3[C@@H]4C(C)(C)OC(=O)[C@]4(C)C(=O)[C@@]23C1=O	> 100	> 100	> 100		> 100	> 100	> 100	> 100	> 100	> 100			70						> 100	
OC1CCC[C@@H]1Sc1ccccc1 (some centres not stated)	> 100		> 100	> 100	> 100	> 100	> 100	> 100												
Cn1nc(-c2ccccc2)c(C(=O)/C=C/c2ccc(F)cc2)c(N2CCOCC2)c1=O	53.2		43		42.1	48.8	75.4	> 100												
Cc1nc(Nc2ccccc2)sc1C(=O)CC(=O)C(=O)NC12CC3CC(CC(C3)C1)C2	> 100	> 100	> 100		> 100	> 100	> 100	> 100												
CC(=O)ON(C(C)=O)C1C(COC(c2ccccc2)(c2ccccc2)c2ccccc2)OC2OC3(CCCC3)OC21 (configuration not stated)	> 100	> 100	> 100	> 100	> 100	> 100	21.3	> 100												
